Results as given in US11466031B2, “Polymorphic forms of bictegravir and its sodium salt” (Mylan Laboratories Limited, priority 2018, dated 2022).

What was measured:
[1] = Storage stability: HPLC purity; type: physicochemical
[2] = Storage stability: polymorph integrity by PXRD; type: physicochemical
Protocol: The crystalline forms of bictegravir disclosed herein may be characterized by X-ray powder diffraction pattern (PXRD). Samples of each polymorph were analyzed on a BRUKER D-8 Discover powder diffractometer equipped with goniometer of θ/2θ configuration and Lynx Eye detector. The Cu-anode X-ray tube was operated at 40 kV and 30 mA. The experiments were conducted over the 2θ range of 2.0°-50.0°, 0.030° step size and 0.4 seconds step time. […] The samples were analyzed by PXRD for polymorph integrity.

[3] = at 25° C./60% RH, 6 months, listed as crystalline bictegravir Form M1
[4] = at 40° C./75% RH, 6 months, listed as crystalline bictegravir Form M1
[5] = at 25° C./60% RH, 6 months, listed as Form M2
[6] = at 40° C./75% RH, 6 months, listed as Form M2
[7] = at 25° C./60% RH, 6 months, listed as amorphous bictegravir sodium
[8] = at 40° C./75% RH, 6 months, listed as amorphous bictegravir sodium

| HPLC purity ([1]; at 25° C./60% RH, 1 months) | HPLC purity ([1]; at 25° C./60% RH, 2 months) | HPLC purity ([1]; at 25° C./60% RH, 3 months) | HPLC purity ([1]; at 25° C./60% RH, 6 months) | HPLC purity ([1]; at 25° C./60% RH, Initial) | HPLC purity ([1]; at 40° C./75% RH, 1 months) | HPLC purity ([1]; at 40° C./75% RH, 2 months) | HPLC purity ([1]; at 40° C./75% RH, 3 months) | HPLC purity ([1]; at 40° C./75% RH, 6 months) | HPLC purity ([1]; at 40° C./75% RH, Initial) | PXRD ([2]; at 25° C./60% RH, 1 months) | PXRD ([2]; at 25° C./60% RH, 2 months) | PXRD ([2]; at 25° C./60% RH, 3 months) | PXRD ([2]; at 25° C./60% RH, 6 months) | PXRD ([2]; at 25° C./60% RH, Initial) | PXRD ([2]; at 40° C./75% RH, 1 months) | PXRD ([2]; at 40° C./75% RH, 2 months) | PXRD ([2]; at 40° C./75% RH, 3 months) | PXRD ([2]; at 40° C./75% RH, 6 months) | PXRD ([2]; at 40° C./75% RH, Initial) | Structure (SMILES) | other results |
| --- | --- | --- | --- | --- | --- | --- | --- | --- | --- | --- | --- | --- | --- | --- | --- | --- | --- | --- | --- | --- | --- |
| 99.68 | 99.67 | 99.73 | 99.73 | 99.66 | 99.67 | 99.69 | 99.80 | 99.78 | 99.66 | Stable | Stable | Stable | Stable | Crystalline | Stable | Stable | Stable | Stable | Crystalline | O=C(NCc1c(F)cc(F)cc1F)c1cn2c(c(O)c1=O)C(=O)N1[C@H]3CC[C@H](C3)O[C@@H]1C2 [Bictegravir Form M1, bictegravir] | HPLC purity [1, 3]: no change; HPLC purity [1, 4]: no change; PXRD [2, 3]: no change; PXRD [2, 4]: no change |
| 99.68 | 99.67 | 99.73 | 99.73 | 99.68 | 99.67 | 99.69 | 99.73 | 99.71 | 99.68 | Stable | Stable | Stable | Stable | Crystalline | Stable | Stable | Stable | Stable | Crystalline | O=C(NCc1c(F)cc(F)cc1F)c1cn2c(c(O)c1=O)C(=O)N1[C@H]3CC[C@H](C3)O[C@@H]1C2 [Bictegravir Form M2, bictegravir] | HPLC purity [1, 5]: no change; HPLC purity [1, 6]: no change; PXRD [2, 5]: no change; PXRD [2, 6]: no change |
| 99.68 | 99.52 | 99.54 | 99.46 | 99.48 | 99.68 | 99.54 | 99.48 | 99.31 | 99.48 | Stable | Stable | Stable | Stable | Amorphous | Stable | Stable | Stable | Stable | Amorphous | O=C(NCc1c(F)cc(F)cc1F)c1cn2c(c([O-])c1=O)C(=O)N1[C@@H]3CC[C@@H](C3)O[C@H]1C2.[Na+] [Bictegravir Sodium Amorphous form, (2R,5S,13aR)-2,5-Methanopyrido[1′,2′:4,5]pyrazino[2,1-b][1,3]oxazepine-10-carboxamide, 2,3,4,5,7,9, 13,13a-octahydro-8-hydroxy-7,9-dioxo-N-[(2,4,6-trifluorophenyl)methyl]-, sodium salt (1:1)] | HPLC purity [1, 7]: no change; HPLC purity [1, 8]: no change; PXRD [2, 7]: no change; PXRD [2, 8]: no change |
